Laboratory results: patent publication US20250144179A1, “PEPTIDE HORMONE TO PREVENT OR TREAT VASOSPASM, BRAIN INJURY OR CEREBRAL EDEMA” (UNIVERSITY OF FLORIDA RESEARCH FOUNDATION, INCORPORATED, priority 2022, published 2025)

Experiments:
Format in all cases: in vivo, mouse
[1] = tested on: wild-type mice, SAH model; test: Fibrinogen immunostaining for microthrombi after SAH; conditions: 24 hours post-SAH, adropin 450 nmol/kg i.p.
Method: (§1) Synthetic adropin^34-76 peptide was supplied from Bachem (Bubendorf, Switzerland) and diluted in 0.1% BSA in saline. 0.1% BSA in saline was used as vehicle control for all experiments. Adropin (450 nmol/kg) or an equivalent volume of vehicle was delivered via intraperitoneal injection 15 minutes post-SAH. For experiments ending at 24 hours post-SAH, an identical dose of adropin/vehicle was given again 12 hours later. For experiments ending 7 days post-SAH, adropin/vehicle was given again on days 1, 3 & 5 post-SAH. In the aneurysm rupture model, adropin was given at a dose of 450 nmol/kg starting 3 days before aneurysm induction (elastase injection). Adropin was given every other day until sacrifice
(§2) SAH was modeled using the anterior circulation single autologous blood injection method^25,33 with minor adjustments. […]
(§3) Following perfusion-fixation and overnight post-fixation in 4% PFA, brain samples were embedded in paraffin wax and cut into […] sections with a Leica RM2125 RTS microtome (Leica Microsystems, Buffalo Grove, New York) and adhered to poly-L-lysine-coated glass slides. […] Primary antibodies were detected using donkey anti-rabbit IgG AlexaFluor594, donkey anti-rabbit IgG AlexaFluor488, donkey anti-rat IgG AlexaFluor594, or donkey anti-goat IgG AlexaFluor488 (all from ThermoFisher, Waltham, Massachusetts). […] All images were analyzed by two blinded observers.

[2] = tested on: wild-type mice, SAH model; test: Brain water content (cerebral edema) after SAH; conditions: 24 hours post-SAH, adropin 450 nmol/kg i.p.
Method: as §1
SAH was modeled using the anterior circulation single autologous blood injection method^25,33 with minor adjustments. Mice were anesthetized with ketamine (100 mg/kg) and xylazine (10 mg/kg) before removing hair from scalp and cleaning with serial betadine—saline washes. The tail was also prepped from the base extending 1 cm distally. Mice were then fixed into a stereotaxic frame and body temperature maintained at 37° C. […]
Brain water content was measured using the wet weight—dry weight method.^34 Twenty-four hours post-SAH, brains were removed from the skull and the olfactory lobe and hindbrain were removed from the cortex and midbrain. […]

[3] = tested on: wild-type mice, SAH model; test: TUNEL/NeuN staining for neuronal apoptosis after SAH; conditions: seven days post-SAH
Method: as §1, §2, §3

Substance: adropin (CHSRSADVDSLSESSPNSSPGPCPEKAPPPQKPSHEGSYLLQP) [Synthetic adropin^34-76 peptide from Bachem]
- number of microthrombi (fibrinogen immunostaining) [1]: adropin treatment completely abolished this effect
- brain water content (cerebral edema) [2]: this effect was blunted by adropin treatment
- NeuN+/TUNEL+ cells (neuronal apoptosis) [3]: did not have as many TUNEL^+ neurons
